# From article PMC9916866 (International Journal of Molecular Sciences, 2023)
# Key:
# [1] = test system: T1, AT2 receptor; type: binding, rat
# T1 construct: expressed in transfected cells
# [2] = target: T2, AT1 receptor (Homo sapiens, UniProt P30556); type: cell-based; design: expressed in transfected cells; host or cells: HEK293T
# T2 sequence (P30556 1-359): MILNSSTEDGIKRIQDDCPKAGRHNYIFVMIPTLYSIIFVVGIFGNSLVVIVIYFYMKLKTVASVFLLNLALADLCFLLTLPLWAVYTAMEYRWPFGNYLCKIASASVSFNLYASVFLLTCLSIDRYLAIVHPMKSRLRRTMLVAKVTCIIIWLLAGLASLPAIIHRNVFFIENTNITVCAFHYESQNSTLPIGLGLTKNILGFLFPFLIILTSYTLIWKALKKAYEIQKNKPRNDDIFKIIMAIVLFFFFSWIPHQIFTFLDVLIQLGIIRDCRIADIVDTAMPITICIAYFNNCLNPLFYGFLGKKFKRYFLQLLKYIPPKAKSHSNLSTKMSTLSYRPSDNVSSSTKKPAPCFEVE
# [3] = target: T2, AT1 receptor
# [4] = target: T2, AT1 receptor; test: cell-based; type: cell-based; design: expressed in transfected cells; host or cells: HEK293T
Structure (SMILES),"non-specific labelling of cells compared to total labelling with Cy5-AngII alone, AT2 [1] [%]",activation of GαoA pathway by the substance alone [2],"inhibition of AngII-induced GαoA activation, 1 µM candesartan [2]",increase in BRET signal (β-arrestin 2 recruitment) by the substance alone [3],"inhibition of AngII-induced β-arrestin 2 BRET signal, 1 µM candesartan [3]",activation of Gαi3 by the substance alone [4],"inhibition of AngII-induced Gαi3 activation, 1 µM candesartan [4]"
"CC[C@H](C)[C@H](NC(=O)[C@H](Cc1ccc(O)cc1)NC(=O)[C@@H](NC(=O)[C@H](CCCNC(=N)N)NC(=O)[C@@H](N)CC(=O)O)C(C)C)C(=O)N[C@@H](Cc1c[nH]cn1)C(=O)N1CCC[C@H]1C(=O)N[C@@H](Cc1ccccc1)C(=O)O [AngII, angiotensin II]",7,,,,,,
CCOc1nc2cccc(C(=O)O)c2n1Cc1ccc(-c2ccccc2-c2nnn[nH]2)cc1 [candesartan],,Neither the toxin nor the candesartan alone can induce activation of this pathway,blocked,Neither the candesartan nor the toxin alone could induce an increase in the BRET signal,completely inhibits,"Neither candesartan, an AT1 receptor antagonist, nor the toxin alone could induce the activation of Gαi3",fully inhibited
